Assay results taken from ChEMBL document CHEMBL1201862, “PubChem BioAssay data set” (2004).
Active and inactive are the calls of the source.

How the values were obtained:
[1] = molecular target: T1, Short transient receptor potential channel 4 (Mus musculus, UniProt Q9QUQ5); test: TRPC4 positive allosteric modulators, dose response, cell-based, HEK293 TRPC4/mu-opioid, Fluo-4 calcium, EC20 DAMGO (AID 434941); assay type: functional
T1 sequence (Q9QUQ5 whole entry): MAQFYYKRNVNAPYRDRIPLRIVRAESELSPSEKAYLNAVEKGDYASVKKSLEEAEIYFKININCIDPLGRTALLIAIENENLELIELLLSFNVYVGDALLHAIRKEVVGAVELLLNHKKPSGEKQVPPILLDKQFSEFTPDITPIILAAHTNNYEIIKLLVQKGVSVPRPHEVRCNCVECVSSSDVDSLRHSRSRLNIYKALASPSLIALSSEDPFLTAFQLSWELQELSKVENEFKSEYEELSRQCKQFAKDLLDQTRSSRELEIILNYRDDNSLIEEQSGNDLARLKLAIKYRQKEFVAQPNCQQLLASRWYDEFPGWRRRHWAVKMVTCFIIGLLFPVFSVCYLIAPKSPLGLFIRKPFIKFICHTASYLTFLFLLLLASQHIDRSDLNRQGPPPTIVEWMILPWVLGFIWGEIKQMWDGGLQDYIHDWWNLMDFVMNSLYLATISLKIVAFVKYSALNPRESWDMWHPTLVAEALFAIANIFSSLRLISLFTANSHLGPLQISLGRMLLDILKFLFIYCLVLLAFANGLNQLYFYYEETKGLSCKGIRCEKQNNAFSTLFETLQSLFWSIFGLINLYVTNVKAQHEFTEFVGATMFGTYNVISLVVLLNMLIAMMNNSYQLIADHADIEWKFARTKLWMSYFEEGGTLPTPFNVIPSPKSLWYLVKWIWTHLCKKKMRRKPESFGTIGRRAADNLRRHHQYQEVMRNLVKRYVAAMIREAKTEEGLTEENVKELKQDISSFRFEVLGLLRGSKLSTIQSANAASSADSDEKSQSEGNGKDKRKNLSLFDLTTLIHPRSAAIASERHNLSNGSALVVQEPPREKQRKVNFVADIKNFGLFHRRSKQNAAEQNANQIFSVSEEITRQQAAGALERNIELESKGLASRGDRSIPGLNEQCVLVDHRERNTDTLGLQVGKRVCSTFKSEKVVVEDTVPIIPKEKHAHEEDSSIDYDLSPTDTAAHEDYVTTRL

[2] = molecular target: Type-1 angiotensin II receptor (Homo sapiens, UniProt P30556); test: AT1 receptor agonists, dose response, selectivity assay for APJ receptor agonist project, cell-based, uHTS hits (AID 488865); assay type: functional;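 further: beta-arrestin recruitment to AT1 measured by enzyme fragment complementation luminescence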
Cytochrome P450 3A4 [3] = molecular target: T2, Cytochrome P450 3A4 (Homo sapiens, UniProt P08684)
T2 sequence (P08684 whole entry): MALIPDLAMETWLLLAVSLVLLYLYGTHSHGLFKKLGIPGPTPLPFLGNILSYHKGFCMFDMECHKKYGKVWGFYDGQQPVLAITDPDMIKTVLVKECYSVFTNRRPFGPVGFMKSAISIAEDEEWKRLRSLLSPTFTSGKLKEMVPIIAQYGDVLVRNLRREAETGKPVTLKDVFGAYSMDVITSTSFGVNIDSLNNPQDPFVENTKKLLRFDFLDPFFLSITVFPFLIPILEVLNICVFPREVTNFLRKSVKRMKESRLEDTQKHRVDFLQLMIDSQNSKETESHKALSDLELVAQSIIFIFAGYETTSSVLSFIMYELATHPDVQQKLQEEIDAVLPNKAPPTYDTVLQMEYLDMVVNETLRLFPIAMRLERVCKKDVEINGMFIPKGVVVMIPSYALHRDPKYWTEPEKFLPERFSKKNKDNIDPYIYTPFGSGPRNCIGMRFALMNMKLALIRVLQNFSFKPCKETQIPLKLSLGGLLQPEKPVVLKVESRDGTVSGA

[4] = molecular target: G-protein coupled receptor 55 (Homo sapiens, UniProt Q9Y2T6); test: GPR55 agonists via beta-arrestin recruitment, primary screen, imaging, U2OS cells, beta-arrestin-GFP redistribution (AID 1961); assay type: functional
G-protein coupled receptor 55, sequence (Q9Y2T6 whole entry, the tested form may be a part): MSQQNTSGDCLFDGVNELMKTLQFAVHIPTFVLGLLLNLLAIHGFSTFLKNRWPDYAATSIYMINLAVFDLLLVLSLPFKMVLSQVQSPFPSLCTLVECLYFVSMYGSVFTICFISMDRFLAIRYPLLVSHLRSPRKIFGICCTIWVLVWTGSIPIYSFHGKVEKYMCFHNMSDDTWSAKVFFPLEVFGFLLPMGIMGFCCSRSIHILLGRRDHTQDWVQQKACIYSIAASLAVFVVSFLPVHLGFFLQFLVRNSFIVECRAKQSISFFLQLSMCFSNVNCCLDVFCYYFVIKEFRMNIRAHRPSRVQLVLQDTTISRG

Perilipin-1/ABHD5 = Perilipin-1/ABHD5 (Homo sapiens, UniProt O60240+Q8WTS1); test: Luminescence-based biochemical high throughput dose response assay for inhibitors of the interaction of the lipase co-activator protein, abhydrolase domain containing 5 (ABHD5) with perilipin-1 (PLIN1) (2K validation set). [Related pubchem assays (depositor defined):AID493027, AID493057]
Perilipin-1/ABHD5, sequence (Q8WTS1 whole entry, the tested form may be a part): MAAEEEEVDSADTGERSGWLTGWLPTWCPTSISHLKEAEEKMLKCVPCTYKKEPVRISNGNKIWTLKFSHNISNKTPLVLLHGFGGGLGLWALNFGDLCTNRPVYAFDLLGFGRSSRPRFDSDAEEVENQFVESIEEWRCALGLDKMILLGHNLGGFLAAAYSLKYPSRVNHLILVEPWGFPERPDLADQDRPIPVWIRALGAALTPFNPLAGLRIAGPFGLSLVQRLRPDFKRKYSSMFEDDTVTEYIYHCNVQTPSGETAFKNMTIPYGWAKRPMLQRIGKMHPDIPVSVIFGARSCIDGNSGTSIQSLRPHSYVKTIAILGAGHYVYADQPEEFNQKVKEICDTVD
Perilipin-1/ABHD5, sequence (O60240 whole entry, the tested form may be a part): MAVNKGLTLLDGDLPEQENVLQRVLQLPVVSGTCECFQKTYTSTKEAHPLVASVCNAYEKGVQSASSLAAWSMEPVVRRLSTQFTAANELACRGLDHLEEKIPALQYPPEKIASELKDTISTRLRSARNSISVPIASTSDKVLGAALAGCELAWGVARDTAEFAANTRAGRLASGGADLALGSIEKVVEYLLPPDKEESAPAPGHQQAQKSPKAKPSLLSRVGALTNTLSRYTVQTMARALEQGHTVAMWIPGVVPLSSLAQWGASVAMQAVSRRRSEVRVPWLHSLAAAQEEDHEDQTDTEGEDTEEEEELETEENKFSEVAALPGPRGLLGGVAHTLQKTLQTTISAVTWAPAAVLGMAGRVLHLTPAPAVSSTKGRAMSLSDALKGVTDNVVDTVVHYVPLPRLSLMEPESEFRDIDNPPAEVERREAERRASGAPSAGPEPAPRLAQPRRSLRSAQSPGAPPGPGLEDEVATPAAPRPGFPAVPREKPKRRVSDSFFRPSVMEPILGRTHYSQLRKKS

[5] = molecular target: 1-acylglycerol-3-phosphate O-acyltransferase ABHD5/Perilipin-5 (Homo sapiens, UniProt Q00G26+Q8WTS1); test: Luminescence-based biochemical high throughput dose response assay for inhibitors of the interaction of the lipase co-activator protein, abhydrolase domain containing 5 (ABHD5) with perilipin-5 (MLDP; PLIN5) (2K validation set). [Related pubchem assays (depositor defined):AID493035, AID493241]
[6] = molecular target: T3, Replicative DNA helicase DnaB (Mycobacterium tuberculosis, UniProt P9WMR3); test: DnaB intein splicing inhibitors, dose response, biochemical, cell-free fluorescence (AID 449749); assay type: functional
T3 sequence (P9WMR3 whole entry): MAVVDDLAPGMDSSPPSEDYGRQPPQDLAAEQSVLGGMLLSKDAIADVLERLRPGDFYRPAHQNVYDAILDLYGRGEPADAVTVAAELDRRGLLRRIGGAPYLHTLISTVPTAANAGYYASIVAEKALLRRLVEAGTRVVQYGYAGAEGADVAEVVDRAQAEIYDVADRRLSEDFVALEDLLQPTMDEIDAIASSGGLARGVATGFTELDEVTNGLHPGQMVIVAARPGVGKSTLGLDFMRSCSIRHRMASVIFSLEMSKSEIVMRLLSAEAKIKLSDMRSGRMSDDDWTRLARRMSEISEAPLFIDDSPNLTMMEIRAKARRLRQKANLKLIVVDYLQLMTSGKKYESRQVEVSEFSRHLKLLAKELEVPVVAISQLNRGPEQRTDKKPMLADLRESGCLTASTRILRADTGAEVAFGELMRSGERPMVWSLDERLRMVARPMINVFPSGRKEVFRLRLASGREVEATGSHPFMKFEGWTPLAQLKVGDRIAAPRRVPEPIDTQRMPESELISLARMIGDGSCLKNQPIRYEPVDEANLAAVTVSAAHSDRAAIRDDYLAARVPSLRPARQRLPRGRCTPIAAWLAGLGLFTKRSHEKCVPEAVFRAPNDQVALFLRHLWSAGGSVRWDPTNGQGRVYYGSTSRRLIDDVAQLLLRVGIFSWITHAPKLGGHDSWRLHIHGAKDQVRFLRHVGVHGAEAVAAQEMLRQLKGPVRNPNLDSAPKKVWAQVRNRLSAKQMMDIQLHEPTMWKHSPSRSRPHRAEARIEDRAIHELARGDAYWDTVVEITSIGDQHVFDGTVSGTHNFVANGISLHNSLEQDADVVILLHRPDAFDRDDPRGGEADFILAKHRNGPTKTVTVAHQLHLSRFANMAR

Protein RecA = molecular target: T4, Protein RecA (Mycobacterium tuberculosis, UniProt P9WHJ3); test: Fluorescence Cell-Free Homogeneous Dose Retest to Identify Inhibitors of RecA-Intein Splicing Activity. [Related pubchem assays (depositor defined):AID2097, AID2223, AID489010, AID492950]; assay type: functional
T4 sequence (P9WHJ3 whole entry): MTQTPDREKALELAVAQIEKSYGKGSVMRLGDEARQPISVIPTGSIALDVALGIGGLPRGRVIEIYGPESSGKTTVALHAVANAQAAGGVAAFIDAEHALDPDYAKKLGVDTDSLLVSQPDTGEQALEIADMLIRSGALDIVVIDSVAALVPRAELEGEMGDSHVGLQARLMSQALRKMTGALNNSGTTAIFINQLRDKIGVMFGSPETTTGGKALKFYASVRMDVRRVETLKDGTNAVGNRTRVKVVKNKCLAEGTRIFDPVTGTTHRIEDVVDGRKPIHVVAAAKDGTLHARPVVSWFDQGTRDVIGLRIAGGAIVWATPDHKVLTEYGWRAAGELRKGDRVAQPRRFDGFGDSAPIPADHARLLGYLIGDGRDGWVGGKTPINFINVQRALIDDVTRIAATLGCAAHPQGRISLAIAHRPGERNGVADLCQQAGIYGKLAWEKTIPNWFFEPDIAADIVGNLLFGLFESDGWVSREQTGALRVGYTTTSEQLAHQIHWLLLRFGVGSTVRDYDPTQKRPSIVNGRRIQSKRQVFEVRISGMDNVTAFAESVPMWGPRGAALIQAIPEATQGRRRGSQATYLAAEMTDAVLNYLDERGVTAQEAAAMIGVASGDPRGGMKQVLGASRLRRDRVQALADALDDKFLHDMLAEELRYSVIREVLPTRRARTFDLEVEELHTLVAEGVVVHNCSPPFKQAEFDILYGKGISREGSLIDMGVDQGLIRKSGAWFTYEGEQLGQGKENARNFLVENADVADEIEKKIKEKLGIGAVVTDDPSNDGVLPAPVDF

[7] = molecular target: T5, High affinity choline transporter 1 (Homo sapiens, UniProt Q9GZV3); test: CHT inhibitors, dose response, cell-based, 5-point CRC, membrane potential dye (AID 504840); assay type: functional
T5 sequence (Q9GZV3 whole entry): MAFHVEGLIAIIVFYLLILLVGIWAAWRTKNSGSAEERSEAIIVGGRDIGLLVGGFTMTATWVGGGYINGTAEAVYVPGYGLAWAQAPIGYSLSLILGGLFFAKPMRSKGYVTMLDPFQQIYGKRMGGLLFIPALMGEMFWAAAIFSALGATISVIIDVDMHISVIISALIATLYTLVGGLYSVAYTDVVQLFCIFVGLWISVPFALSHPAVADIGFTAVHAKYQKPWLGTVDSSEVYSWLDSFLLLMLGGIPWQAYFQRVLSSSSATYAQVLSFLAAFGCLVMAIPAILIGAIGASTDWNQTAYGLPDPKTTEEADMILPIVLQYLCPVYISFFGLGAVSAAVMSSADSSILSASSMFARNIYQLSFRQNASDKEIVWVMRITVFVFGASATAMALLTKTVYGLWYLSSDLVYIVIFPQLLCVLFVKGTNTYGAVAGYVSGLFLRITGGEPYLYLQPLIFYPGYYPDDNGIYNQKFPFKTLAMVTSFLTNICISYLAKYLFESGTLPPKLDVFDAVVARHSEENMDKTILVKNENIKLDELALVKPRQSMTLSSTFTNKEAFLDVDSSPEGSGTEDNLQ

Cytochrome P450 3A4 [8] = molecular target: T2, Cytochrome P450 3A4; settings: Potency
SUMO-activating enzyme [9] = molecular target: T6, SUMO-activating enzyme (Homo sapiens, UniProt Q9UBT2); test: SUMOylation inhibitor hit validation, confirmation, SUMOylation inhibitor project, biochemical, AlphaScreen (AID 2018); assay type: functional
T6 sequence (Q9UBE0 whole entry, the tested form may be a part): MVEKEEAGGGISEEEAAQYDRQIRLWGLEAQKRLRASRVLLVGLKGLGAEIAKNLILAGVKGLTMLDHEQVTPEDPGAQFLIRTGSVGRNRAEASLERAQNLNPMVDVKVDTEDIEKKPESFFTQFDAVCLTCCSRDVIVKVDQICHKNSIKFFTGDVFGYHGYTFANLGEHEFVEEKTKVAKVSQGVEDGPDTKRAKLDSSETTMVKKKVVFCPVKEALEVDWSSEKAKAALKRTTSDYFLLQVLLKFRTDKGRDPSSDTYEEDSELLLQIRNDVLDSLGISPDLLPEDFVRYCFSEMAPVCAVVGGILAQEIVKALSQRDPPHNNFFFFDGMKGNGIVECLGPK
T6 sequence (Q9UBT2 whole entry, the tested form may be a part): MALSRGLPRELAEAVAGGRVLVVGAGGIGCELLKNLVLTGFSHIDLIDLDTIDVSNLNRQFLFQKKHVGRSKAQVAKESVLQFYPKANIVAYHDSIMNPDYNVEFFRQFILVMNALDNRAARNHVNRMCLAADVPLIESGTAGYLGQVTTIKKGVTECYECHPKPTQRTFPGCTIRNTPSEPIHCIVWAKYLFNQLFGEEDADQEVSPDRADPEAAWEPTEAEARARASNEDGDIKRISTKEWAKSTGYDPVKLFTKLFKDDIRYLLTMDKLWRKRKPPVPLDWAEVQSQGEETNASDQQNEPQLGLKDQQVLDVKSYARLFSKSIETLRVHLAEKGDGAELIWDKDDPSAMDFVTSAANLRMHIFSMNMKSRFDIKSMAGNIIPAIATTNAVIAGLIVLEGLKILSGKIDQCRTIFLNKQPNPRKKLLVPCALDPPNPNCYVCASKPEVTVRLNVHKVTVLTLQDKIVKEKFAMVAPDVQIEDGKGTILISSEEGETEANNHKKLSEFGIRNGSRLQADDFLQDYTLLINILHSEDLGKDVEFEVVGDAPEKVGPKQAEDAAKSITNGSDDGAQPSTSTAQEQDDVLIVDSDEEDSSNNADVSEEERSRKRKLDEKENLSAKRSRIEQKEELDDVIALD

[10] = molecular target: Envelope glycoprotein gp160 (Human immunodeficiency virus 1, UniProt Q6QLK5); test: inhibitors of HIV fusion peptide binding, primary screen, biochemical, uHTS, fluorescence dequenching (AID 1986)
Envelope glycoprotein gp160, sequence (Q6QLK5 whole entry, the tested form may be a part): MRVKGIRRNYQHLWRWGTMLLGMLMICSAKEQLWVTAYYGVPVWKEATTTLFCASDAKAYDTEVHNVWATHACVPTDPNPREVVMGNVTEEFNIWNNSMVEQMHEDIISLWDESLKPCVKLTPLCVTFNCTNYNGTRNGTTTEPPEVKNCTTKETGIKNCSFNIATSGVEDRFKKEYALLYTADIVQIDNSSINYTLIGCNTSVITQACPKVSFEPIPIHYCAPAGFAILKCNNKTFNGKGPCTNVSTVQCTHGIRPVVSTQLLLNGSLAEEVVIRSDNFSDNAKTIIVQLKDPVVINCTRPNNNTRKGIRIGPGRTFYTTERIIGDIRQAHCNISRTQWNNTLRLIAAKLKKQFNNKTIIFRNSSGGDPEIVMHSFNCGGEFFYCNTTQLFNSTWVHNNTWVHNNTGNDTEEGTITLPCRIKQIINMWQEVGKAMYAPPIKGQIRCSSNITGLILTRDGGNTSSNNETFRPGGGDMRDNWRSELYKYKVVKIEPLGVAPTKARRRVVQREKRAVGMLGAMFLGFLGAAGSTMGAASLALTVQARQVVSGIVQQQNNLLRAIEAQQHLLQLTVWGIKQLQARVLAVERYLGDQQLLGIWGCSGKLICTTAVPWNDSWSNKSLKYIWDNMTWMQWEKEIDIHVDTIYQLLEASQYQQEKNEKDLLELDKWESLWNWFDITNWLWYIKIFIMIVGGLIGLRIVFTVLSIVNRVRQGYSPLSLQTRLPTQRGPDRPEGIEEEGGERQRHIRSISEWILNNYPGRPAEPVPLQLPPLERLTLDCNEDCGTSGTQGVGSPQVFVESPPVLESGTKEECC

SUMO-activating enzyme [11] = molecular target: T6, SUMO-activating enzyme; test: inhibitors of in vitro SUMOylation cascade, primary screen, biochemical, HTRF, uHTS (AID 2006); assay type: protein-complex assay
Genome polyprotein = Genome polyprotein (dengue virus type 2, UniProt P29990); test: Dengue-2 NS5 methyltransferase inhibitors, primary screen, biochemical, confirmation dose response (AID 588689); assay type: functional
[12] = molecular target: T7, Alkaline phosphatase, tissue-nonspecific isozyme (Homo sapiens, UniProt P05186); test: TNAP enzyme activators, dose response, selectivity assay for human IAP activator project, biochemical, TNAP isozyme, human IAP uHTS hits (AID 488886); assay type: functional;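 further: potency of compounds raising TNAP activity as a selectivity check on IAP activators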
T7 sequence (P05186 whole entry): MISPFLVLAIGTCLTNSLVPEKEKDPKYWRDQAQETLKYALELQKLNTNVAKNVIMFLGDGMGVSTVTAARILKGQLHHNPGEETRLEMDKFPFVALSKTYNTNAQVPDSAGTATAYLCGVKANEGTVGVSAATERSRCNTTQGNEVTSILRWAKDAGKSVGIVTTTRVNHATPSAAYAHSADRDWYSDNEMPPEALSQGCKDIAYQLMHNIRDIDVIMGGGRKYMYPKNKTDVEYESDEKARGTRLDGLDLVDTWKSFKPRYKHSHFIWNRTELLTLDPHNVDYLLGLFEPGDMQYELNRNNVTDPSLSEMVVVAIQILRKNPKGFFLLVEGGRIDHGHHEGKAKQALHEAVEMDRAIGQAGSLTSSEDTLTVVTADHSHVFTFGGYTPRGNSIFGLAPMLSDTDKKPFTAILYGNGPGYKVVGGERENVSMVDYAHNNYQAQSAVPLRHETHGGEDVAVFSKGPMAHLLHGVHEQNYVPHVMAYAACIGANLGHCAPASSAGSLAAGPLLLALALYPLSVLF

[13] = molecular target: T8, Intestinal-type alkaline phosphatase (Mus musculus, UniProt P24822); test: PubChem AID 488875; assay type: functional
T8 sequence (P24822 whole entry): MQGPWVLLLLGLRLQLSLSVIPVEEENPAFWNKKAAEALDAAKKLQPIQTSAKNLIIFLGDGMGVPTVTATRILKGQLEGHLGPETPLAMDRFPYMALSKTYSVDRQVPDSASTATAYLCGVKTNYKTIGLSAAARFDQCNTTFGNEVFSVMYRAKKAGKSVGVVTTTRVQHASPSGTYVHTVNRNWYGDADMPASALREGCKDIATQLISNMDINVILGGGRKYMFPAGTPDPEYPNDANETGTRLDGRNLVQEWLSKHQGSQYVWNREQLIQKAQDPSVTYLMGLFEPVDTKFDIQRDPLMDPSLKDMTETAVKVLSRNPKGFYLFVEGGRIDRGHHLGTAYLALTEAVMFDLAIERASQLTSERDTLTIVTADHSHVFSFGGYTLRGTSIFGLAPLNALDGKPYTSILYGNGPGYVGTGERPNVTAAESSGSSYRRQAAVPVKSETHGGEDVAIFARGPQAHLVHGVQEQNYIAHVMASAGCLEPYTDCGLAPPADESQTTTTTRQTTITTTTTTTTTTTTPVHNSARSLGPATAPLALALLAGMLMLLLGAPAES

[14] = molecular target: T8, Intestinal-type alkaline phosphatase; test: PubChem AID 488874; assay type: functional
[15] = molecular target: T9, Intestinal-type alkaline phosphatase (Homo sapiens, UniProt P09923); test: human intestinal alkaline phosphatase activators, dose response, biochemical, luminescence, uHTS hits (AID 463120); assay type: functional
T9 sequence (P09923 whole entry): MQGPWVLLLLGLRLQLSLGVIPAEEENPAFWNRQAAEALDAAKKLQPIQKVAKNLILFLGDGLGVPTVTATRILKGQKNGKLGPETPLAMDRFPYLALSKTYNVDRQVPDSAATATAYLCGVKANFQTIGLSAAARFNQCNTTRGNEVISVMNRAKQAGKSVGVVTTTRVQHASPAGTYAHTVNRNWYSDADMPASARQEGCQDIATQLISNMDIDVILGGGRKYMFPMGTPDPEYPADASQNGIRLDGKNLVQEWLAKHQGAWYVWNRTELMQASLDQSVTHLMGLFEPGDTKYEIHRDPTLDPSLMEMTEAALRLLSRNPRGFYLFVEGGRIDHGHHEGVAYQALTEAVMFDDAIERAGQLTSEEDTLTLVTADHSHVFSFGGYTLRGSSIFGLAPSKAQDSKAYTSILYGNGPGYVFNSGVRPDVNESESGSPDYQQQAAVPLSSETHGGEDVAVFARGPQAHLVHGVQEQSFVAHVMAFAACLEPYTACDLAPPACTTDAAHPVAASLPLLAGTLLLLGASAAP

[16] = molecular target: T9, Intestinal-type alkaline phosphatase; test: human IAP activators, dose response, biochemical, luminescent, uHTS hits, set 2 (AID 488817); assay type: functional;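 further: potency of activators that raise enzyme activity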
[17] = molecular target: Sphingosine 1-phosphate receptor 4 (Homo sapiens, UniProt O95977); test: S1P4 receptor agonists, human, late-stage follow-up, cell-based, fluorescence, synthesized compounds (AID 463107); assay type: functional
Sphingosine 1-phosphate receptor 4, sequence (O95977 whole entry): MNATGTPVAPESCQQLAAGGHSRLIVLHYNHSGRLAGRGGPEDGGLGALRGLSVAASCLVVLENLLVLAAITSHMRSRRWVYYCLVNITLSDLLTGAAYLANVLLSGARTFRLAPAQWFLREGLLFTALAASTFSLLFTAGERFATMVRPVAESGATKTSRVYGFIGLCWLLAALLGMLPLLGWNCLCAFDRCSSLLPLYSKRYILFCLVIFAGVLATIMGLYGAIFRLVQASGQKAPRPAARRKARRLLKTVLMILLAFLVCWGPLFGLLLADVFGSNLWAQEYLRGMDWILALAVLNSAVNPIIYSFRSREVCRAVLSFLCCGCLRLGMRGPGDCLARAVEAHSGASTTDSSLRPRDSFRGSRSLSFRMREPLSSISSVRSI

[18] = molecular target: Voltage-dependent T-type calcium channel subunit alpha-1H (Homo sapiens, UniProt O95180); test: Cav3.2 T-type channel inhibitors, cell-based, synthetic library set 1, calcium flux (AID 493022); assay type: functional

**Q.** For `Cc1cccc(/C=N/NC(=O)c2cccc(Cl)c2)n1`, which EC50 [1] is on record?
**A.** 5.31 µM (active)

**Q.** Which results are given for `CCOc1cc2[nH]c(=S)n(CCC(=O)N3CCc4ccccc4C3)c(=O)c2cc1OCC`?
**A.** EC50 [2]: > 100 µM (inactive); AC50 (Cytochrome P450 3A4 [3]): 3.55 µM (inconclusive)

**Q.** For `COc1cc(S(=O)(=O)N2CCOCC2)ccc1NC(=O)c1cc2c(s1)CCC2`, which EC50 [4] is on record?
**A.** 2.83 µM (active)

**Q.** How did the IC50 (Perilipin-1/ABHD5) turn out when `CCOC(=O)C(=Cc1ccccc1OC)C(=O)OCC` was run?
**A.** 11.5 µM (inactive)

**Q.** What about the IC50 [5] of the same molecule?
**A.** 15.3 µM (inactive)

**Q.** How did the AC50 [6] turn out when `CCCCCc1c2c(cc(O)c1C(=O)O)OC(=O)c1c(cc(OC)cc1C(=O)CCCC)O2` [LOBARIC ACID] was run?
**A.** 6.47 µM (active)

**Q.** And the EC50 (Protein RecA)?
**A.** 4.98 µM (active)

**Q.** And the IC50 [7]?
**A.** 11 µM (active)

**Q.** And the AC50 (Cytochrome P450 3A4 [8])?
**A.** 25.1 µM (inconclusive)

**Q.** What about the IC50 (SUMO-activating enzyme [9]) of the same molecule?
**A.** 6.52 µM (active)

**Q.** And the IC50 [10]?
**A.** 13.1 µM (active)

**Q.** And the IC50 (SUMO-activating enzyme [11])?
**A.** 15.3 µM (active)

**Q.** And the IC50 (Genome polyprotein)?
**A.** 32.2 µM (active)

**Q.** What does the source list for `CC(NS(=O)(=O)c1ccc(Br)cc1)C(=O)Nc1nc2ccccc2[nH]1` (stereo unspecified)?
**A.** EC50 [12]: 14.3 µM (active); EC50 [13]: > 100 µM (inactive); IC50 [14]: > 100 µM (inactive); EC50 [15]: 11 µM (active); EC50 [16]: 13.3 µM (active)

**Q.** Which EC50 [17] does the source give for `Cc1ccc(C#N)c(OCCOc2ccc(Cl)cc2Cl)n1` here?
**A.** > 50 µM (inactive)

**Q.** With `O=C(COc1ccc(F)cc1)Nc1nnc(-c2ccc3c(c2)OCO3)o1` as the molecule, how does the EC50 [18] read?
**A.** 10 µM (active)
